Legend:
Format in all cases: functional
Conditions in all cases: read-out: IZ
Bacillus subtilis [1] = experiment: Antibacterial activity against Bacillus subtilis ATCC 6633 at 100 ug/disk by agar diffusion assay
Staphylococcus aureus [2] = experiment: Antibacterial activity against Staphylococcus aureus ATCC 25923 at 100 ug/disk by agar diffusion assay
Staphylococcus aureus [3] = experiment: Antibacterial activity against Staphylococcus aureus ATCC 25923 at 50 ug/disk by agar diffusion assay
Bacillus subtilis [4] = experiment: Antibacterial activity against Bacillus subtilis ATCC 6633 at 50 ug/disk by agar diffusion assay

SMILES | zone of inhibition at 100 µg/disc (Bacillus subtilis [1]) [mm] | zone of inhibition at 100 µg/disc (Staphylococcus aureus [2]) [mm] | zone of inhibition at 50 µg/disc (Staphylococcus aureus [3]) [mm] | zone of inhibition at 50 µg/disc (Bacillus subtilis [4]) [mm]
C[C@@H]1CCC/C=C/CCC(=O)C[C@@H](O)C/C=C\C=C\[C@@H](O)C/C=C/C=C\C(=O)O1 [MACROLACTIN F] | 8 | 28 | – | –
C[C@@H]1CCC/C=C/CCC(=O)C[C@@H](O)C/C=C\C=C\[C@@H](OC(=O)CCC(=O)O)C/C=C/C=C\C(=O)O1 | 9 | 8 | – | –
C[C@@H]1CCC/C=C/C=C/[C@H](O)C[C@@H](O)C/C=C\C=C\[C@@H](OC(=O)CCC(=O)O)C/C=C/C=C\C(=O)O1 [7-O-SUCCINYL MACROLACTIN A] | – | – | 24 | 10

— ChEMBL document CHEMBL1155556, “New macrolactins from a marine Bacillus sp. Sc026” (2000)
